Assays:
Format in all cases: functional
SK-MEL-5 = test: Growth inhibition of human SK-MEL-5 cells assessed as cell growth at 5X10'-8 M after 48 hrs by sulforhodamine B assay; conditions: SK-MEL-5, 48 h, read-out: Activity
MDA-MB-468 = test: Growth inhibition of human MDA-MB-468 cells assessed as cell growth at 5X10'-5 M after 48 hrs by sulforhodamine B assay; conditions: MDA-MB-468, 48 h, read-out: Activity
KM12 [1] = test: Growth inhibition of human KM12 cells assessed as cell growth at 5X10'-6 M after 48 hrs by sulforhodamine B assay; conditions: KM12, 48 h, read-out: Activity
U-251 [2] = test: Growth inhibition of human U251 cells assessed as cell growth at 5X10'-8 M after 48 hrs by sulforhodamine B assay; conditions: U-251, 48 h, read-out: Activity
SF-539 = test: Growth inhibition of human SF539 cells assessed as cell growth at 5X10'-6 M after 48 hrs by sulforhodamine B assay; conditions: SF-539, 48 h, read-out: Activity
DU-145 = test: Growth inhibition of human DU145 cells assessed as cell growth at 5X10'-9 M after 48 hrs by sulforhodamine B assay; conditions: DU-145, 48 h, read-out: Activity
HOP-62 [3] = test: Growth inhibition of human HOP62 cells assessed as cell growth at 5X10'-5 M after 48 hrs by sulforhodamine B assay; conditions: HOP-62, 48 h, read-out: Activity
SNB-19 = test: Growth inhibition of human SNB19 cells assessed as cell growth at 5X10'-7 M after 48 hrs by sulforhodamine B assay; conditions: SNB-19, 48 h, read-out: Activity
SK-MEL-28 = test: Growth inhibition of human SK-MEL-28 cells assessed as cell growth at 5X10'-5 M after 48 hrs by sulforhodamine B assay; conditions: SK-MEL-28, 48 h, read-out: Activity
TK-10 = test: Growth inhibition of human TK10 cells assessed as cell growth at 5X10'-9 M after 48 hrs by sulforhodamine B assay; conditions: TK-10, 48 h, read-out: Activity
NCI-H23 = test: Growth inhibition of human NCI-H23 cells assessed as cell growth at 5X10'-8 M after 48 hrs by sulforhodamine B assay; conditions: NCI-H23, 48 h, read-out: Activity
NCI-H460 = test: Growth inhibition of human NCI-H460 cells assessed as cell growth at 5X10'-6 M after 48 hrs by sulforhodamine B assay; conditions: NCI-H460, 48 h, read-out: Activity
RPMI-8226 = test: Growth inhibition of human RPMI8226 cells assessed as cell growth at 5X10'-5 M after 48 hrs by sulforhodamine B assay; conditions: RPMI-8226, 48 h, read-out: Activity
OVCAR-3 = test: Growth inhibition of human OVCAR3 cells assessed as cell growth at 5X10'-8 M after 48 hrs by sulforhodamine B assay; conditions: OVCAR-3, 48 h, read-out: Activity
HCT-15 [4] = test: Growth inhibition of human HCT15 cells assessed as cell growth at 5X10'-7 M after 48 hrs by sulforhodamine B assay; conditions: HCT-15, 48 h, read-out: Activity
NCI-H322M = test: Growth inhibition of human NCI-H322M cells assessed as cell growth at 5X10'-5 M after 48 hrs by sulforhodamine B assay; conditions: read-out: Activity
Malme-3M [5] = test: Growth inhibition of human MALME-3M cells assessed as cell growth at 5X10'-5 M after 48 hrs by sulforhodamine B assay; conditions: read-out: Activity
HOP-62 [6] = test: Growth inhibition of human HOP62 cells assessed as cell growth at 5X10'-7 M after 48 hrs by sulforhodamine B assay; conditions: HOP-62, 48 h, read-out: Activity
A498 = test: Growth inhibition of human A498 cells assessed as cell growth at 5X10'-5 M after 48 hrs by sulforhodamine B assay; conditions: A498, 48 h, read-out: Activity
OVCAR-5 [7] = test: Growth inhibition of human OVCAR5 cells assessed as cell growth at 5X10'-9 M after 48 hrs by sulforhodamine B assay; conditions: OVCAR-5, 48 h, read-out: Activity
Malme-3M [8] = test: Growth inhibition of human MALME-3M cells assessed as cell growth at 5X10'-6 M after 48 hrs by sulforhodamine B assay; conditions: read-out: Activity
HL-60(TB) [9] = test: Growth inhibition of human HL-60(TB) cells assessed as cell growth at 5X10'-6 M after 48 hrs by sulforhodamine B assay; conditions: HL-60, 48 h, read-out: Activity
CAKI-1 = test: Growth inhibition of human CAKI-1 cells assessed as cell growth at 5X10'-6 M after 48 hrs by sulforhodamine B assay; conditions: CAKI-1, 48 h, read-out: Activity
HL-60(TB) [10] = test: Growth inhibition of human HL-60(TB) cells assessed as cell growth at 5X10'-5 M after 48 hrs by sulforhodamine B assay; conditions: HL-60, 48 h, read-out: Activity
MCF7 = test: Growth inhibition of human MCF7 cells assessed as cell growth at 5X10'-9 M after 48 hrs by sulforhodamine B assay; conditions: MCF7, 48 h, read-out: Activity
SR = test: Growth inhibition of human SR cells assessed as cell growth at 5X10'-8 M after 48 hrs by sulforhodamine B assay; conditions: read-out: Activity
HOP-92 = test: Growth inhibition of human HOP92 cells assessed as cell growth at 5X10'-6 M after 48 hrs by sulforhodamine B assay; conditions: HOP-92, 48 h, read-out: Activity
OVCAR-8 [11] = test: Growth inhibition of human OVCAR8 cells assessed as cell growth at 5X10'-9 M after 48 hrs by sulforhodamine B assay; conditions: OVCAR-8, 48 h, read-out: Activity
OVCAR-5 [12] = test: Growth inhibition of human OVCAR5 cells assessed as cell growth at 5X10'-5 M after 48 hrs by sulforhodamine B assay; conditions: OVCAR-5, 48 h, read-out: Activity
KM12 [13] = test: Growth inhibition of human KM12 cells assessed as cell growth at 5X10'-7 M after 48 hrs by sulforhodamine B assay; conditions: KM12, 48 h, read-out: Activity
SF-295 [14] = test: Growth inhibition of human SF295 cells assessed as cell growth at 5X10'-8 M after 48 hrs by sulforhodamine B assay; conditions: SF-295, 48 h, read-out: Activity
OVCAR-8 [15] = test: Growth inhibition of human OVCAR8 cells assessed as cell growth at 5X10'-8 M after 48 hrs by sulforhodamine B assay; conditions: OVCAR-8, 48 h, read-out: Activity
786-0 = test: Growth inhibition of human 786-0 cells assessed as cell growth at 5X10'-5 M after 48 hrs by sulforhodamine B assay; conditions: 786-0, 48 h, read-out: Activity
U-251 [16] = test: Growth inhibition of human U251 cells assessed as cell growth at 5X10'-9 M after 48 hrs by sulforhodamine B assay; conditions: U-251, 48 h, read-out: Activity
HCT-15 [17] = test: Growth inhibition of human HCT15 cells assessed as cell growth at 5X10'-5 M after 48 hrs by sulforhodamine B assay; conditions: HCT-15, 48 h, read-out: Activity
[18] = Growth inhibition of human Hs 578T cells assessed as cell growth at 5X10'-6 M after 48 hrs by sulforhodamine B assay; conditions: read-out: Activity
SF-295 [19] = test: Growth inhibition of human SF295 cells assessed as cell growth at 5X10'-9 M after 48 hrs by sulforhodamine B assay; conditions: SF-295, 48 h, read-out: Activity

SMILES	growth at 0.05 µM (SK-MEL-5) [%]	growth at 50 µM (MDA-MB-468) [%]	growth at 5 µM (KM12 [1]) [%]	growth at 0.05 µM (U-251 [2]) [%]	growth at 5 µM (SF-539) [%]	growth at 0.005 µM (DU-145) [%]	growth at 50 µM (HOP-62 [3]) [%]	growth at 0.5 µM (SNB-19) [%]	growth at 50 µM (SK-MEL-28) [%]	growth at 0.005 µM (TK-10) [%]	growth at 0.05 µM (NCI-H23) [%]	growth at 5 µM (NCI-H460) [%]	growth at 50 µM (RPMI-8226) [%]	growth at 0.05 µM (OVCAR-3) [%]	growth at 0.5 µM (HCT-15 [4]) [%]	growth at 50 µM (NCI-H322M) [%]	growth at 50 µM (Malme-3M [5]) [%]	growth at 0.5 µM (HOP-62 [6]) [%]	growth at 50 µM (A498) [%]	growth at 0.005 µM (OVCAR-5 [7]) [%]	other results
COc1cc(-c2nn(-c3cccc(NC(=O)c4cccc(C(F)(F)F)c4)c3)cc2-c2ccncc2)ccc1Cl	97	-32	14	94	-41	98	51	100	38	95	90	4	-4	101	84	46	29	97	-28	95	growth at 5 µM (Malme-3M [8]): 21%; growth at 5 µM (HL-60(TB) [9]): 16%; growth at 5 µM (CAKI-1): 24%; growth at 50 µM (HL-60(TB) [10]): 5%; growth at 0.005 µM (MCF7): 94%; growth at 0.05 µM (SR): 98%; growth at 5 µM (HOP-92): -14%; growth at 0.005 µM (OVCAR-8 [11]): 97%; growth at 50 µM (OVCAR-5 [12]): 31%; growth at 0.5 µM (KM12 [13]): 89%; growth at 0.05 µM (SF-295 [14]): 95%; growth at 0.05 µM (OVCAR-8 [15]): 99%; growth at 50 µM (786-0): 3%; growth at 0.005 µM (U-251 [16]): 94%; growth at 50 µM (HCT-15 [17]): 8%; growth at 5 µM [18]: 2%; growth at 0.005 µM (SF-295 [19]): 94%
O=C(Nc1cccc(-n2cc(-c3ccncc3)c(-c3ccc(Cl)c(O)c3)n2)c1)c1ccc(N2CCOCC2)c(C(F)(F)F)c1	93	-24	25	101	21	98	6	105	-54	94	93	9	-14	100	91	56	-40	117	6	98	growth at 5 µM (Malme-3M [8]): -9%; growth at 5 µM (HL-60(TB) [9]): 39%; growth at 5 µM (CAKI-1): 34%; growth at 50 µM (HL-60(TB) [10]): 4%; growth at 0.005 µM (MCF7): 89%; growth at 0.05 µM (SR): 99%; growth at 5 µM (HOP-92): -7%; growth at 0.005 µM (OVCAR-8 [11]): 101%; growth at 50 µM (OVCAR-5 [12]): 71%; growth at 0.5 µM (KM12 [13]): 85%; growth at 0.05 µM (SF-295 [14]): 98%; growth at 0.05 µM (OVCAR-8 [15]): 106%; growth at 50 µM (786-0): -53%; growth at 0.005 µM (U-251 [16]): 101%; growth at 50 µM (HCT-15 [17]): -7%; growth at 5 µM [18]: 25%; growth at 0.005 µM (SF-295 [19]): 93%
O=C(Nc1cccc(-n2cc(-c3ccncc3)c(-c3ccc(Cl)c(O)c3)n2)c1)Nc1cc(C(F)(F)F)cc(C(F)(F)F)c1	92	-55	-60	93	-91	106	-90	64	-95	107	99	-51	5	111	49	-75	-64	96	-95	96	growth at 5 µM (Malme-3M [8]): -21%; growth at 5 µM (HL-60(TB) [9]): 3%; growth at 5 µM (CAKI-1): -4%; growth at 50 µM (HL-60(TB) [10]): -4%; growth at 0.005 µM (MCF7): 91%; growth at 0.05 µM (SR): 102%; growth at 5 µM (HOP-92): -38%; growth at 0.005 µM (OVCAR-8 [11]): 101%; growth at 50 µM (OVCAR-5 [12]): -89%; growth at 0.5 µM (KM12 [13]): 51%; growth at 0.05 µM (SF-295 [14]): 90%; growth at 0.05 µM (OVCAR-8 [15]): 93%; growth at 50 µM (786-0): -71%; growth at 0.005 µM (U-251 [16]): 95%; growth at 50 µM (HCT-15 [17]): -74%; growth at 5 µM [18]: -8%; growth at 0.005 µM (SF-295 [19]): 92%
